Assay results from the supplement of paper PMC10307832.

Assays:
Test in all cases: relative viability (nuclei count vs DMSO), 5 days (fraction); higher = more cells survive
A-427 = test system: A-427
In short: (§1)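 Lung cancer cell lines in 1536-well plates got either a single drug or a fixed anchor-drug dose together with five library-drug doses (not always all listed) in √10 steps, by pin tool, on the day after seeding. Nuclei were counted after 5 days, and relative viability is the treated-to-vehicle ratio of nuclei counts. Values are medians of duplicate plates.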

COR-L 105 = test system: COR-L 105
In short: as §1

EKVX = test system: EKVX
In short: as §1

EMC-BAC-2 = test system: EMC-BAC-2
In short: as §1

H3255 = test system: H3255
In short: as §1

HCC-366 = test system: HCC-366
In short: as §1

LK-2 = test system: LK-2
In short: as §1

LOU-NH91 = test system: LOU-NH91
In short: as §1

NCI-H1563 = test system: NCI-H1563
In short: as §1

NCI-H1666 = test system: NCI-H1666
In short: as §1

NCI-H1734 = test system: NCI-H1734
In short: as §1

NCI-H1755 = test system: NCI-H1755
In short: as §1

NCI-H1792 = test system: NCI-H1792
In short: as §1

NCI-H1975 = test system: NCI-H1975
In short: as §1

NCI-H23 = test system: NCI-H23
In short: as §1

NCI-H441 = test system: NCI-H441
In short: as §1

NCI-H520 = test system: NCI-H520
In short: as §1

NCI-H596 = test system: NCI-H596
In short: as §1

PC-3 [JPC-3] = test system: PC-3 [JPC-3]
In short: as §1

SK-MES-1 = test system: SK-MES-1
In short: as §1

CC1(C)CCC(c2ccc(Cl)cc2)=C(CN2CCN(c3ccc(C(=O)NS(=O)(=O)c4ccc(N[C@H](CCN5CCOCC5)CSc5ccccc5)c(S(=O)(=O)C(F)(F)F)c4)cc3)CC2)C1 [Navitoclax] + C[C@]1(O)C[C@@H](c2nc(-c3ccc4ccc(-c5ccccc5)nc4c3)c3c(N)nccn32)C1 [Linsitinib] (partner 1 µM) was tested, and the relative viability (A-427; first compound 0.005 µM) was 1.13, the relative viability (A-427; first compound 0.01581 µM) was 1.11 and the relative viability (A-427; first compound 0.05 µM) was 0.911. The relative viability (A-427; first compound 0.1581 µM) was 1.12, the relative viability (A-427; first compound 0.5 µM) was 1.15 and the relative viability (COR-L 105; first compound 0.005 µM) was 0.937. It also gave a relative viability (COR-L 105; first compound 0.01581 µM) of 1.02, a relative viability (COR-L 105; first compound 0.05 µM) of 1.05 and a relative viability (COR-L 105; first compound 0.1581 µM) of 1.09. It also gave a relative viability (COR-L 105; first compound 0.5 µM) of 0.979, a relative viability (EKVX; first compound 0.005 µM) of 0.953 and a relative viability (EKVX; first compound 0.01581 µM) of 1.28. The relative viability (EKVX; first compound 0.05 µM) was 0.954, the relative viability (EKVX; first compound 0.1581 µM) was 0.953 and the relative viability (EKVX; first compound 0.5 µM) was 1.01. For the same molecule, the relative viability (EMC-BAC-2; first compound 0.005 µM) was 0.759, the relative viability (EMC-BAC-2; first compound 0.01581 µM) was 0.895 and the relative viability (EMC-BAC-2; first compound 0.05 µM) was 0.809. The relative viability (EMC-BAC-2; first compound 0.1581 µM) was 0.78, the relative viability (EMC-BAC-2; first compound 0.5 µM) was 0.83 and the relative viability (H3255; first compound 0.005 µM) was 0.917. It also gave a relative viability (H3255; first compound 0.01581 µM) of 1.12, a relative viability (H3255; first compound 0.05 µM) of 0.877 and a relative viability (H3255; first compound 0.1581 µM) of 0.892. For the same molecule, the relative viability (H3255; first compound 0.5 µM) was 0.89, the relative viability (HCC-366; first compound 0.005 µM) was 0.672 and the relative viability (HCC-366; first compound 0.01581 µM) was 0.728. The relative viability (HCC-366; first compound 0.05 µM) was 0.155, the relative viability (HCC-366; first compound 0.1581 µM) was 0.615 and the relative viability (HCC-366; first compound 0.5 µM) was 0.449. For the same molecule, the relative viability (LK-2; first compound 0.005 µM) was 0.792, the relative viability (LK-2; first compound 0.01581 µM) was 0.803 and the relative viability (LK-2; first compound 0.05 µM) was 0.805. For the same molecule, the relative viability (LK-2; first compound 0.1581 µM) was 0.51, the relative viability (LK-2; first compound 0.5 µM) was 0.623 and the relative viability (LOU-NH91; first compound 0.005 µM) was 0.974. The relative viability (LOU-NH91; first compound 0.01581 µM) was 0.999, the relative viability (LOU-NH91; first compound 0.05 µM) was 0.933 and the relative viability (LOU-NH91; first compound 0.1581 µM) was 1.02. For the same molecule, the relative viability (LOU-NH91; first compound 0.5 µM) was 0.842, the relative viability (NCI-H1563; first compound 0.005 µM) was 0.99 and the relative viability (NCI-H1563; first compound 0.01581 µM) was 1.13. The relative viability (NCI-H1563; first compound 0.05 µM) was 1.17, the relative viability (NCI-H1563; first compound 0.1581 µM) was 1.24 and the relative viability (NCI-H1563; first compound 0.5 µM) was 1.27. It also gave a relative viability (NCI-H1666; first compound 0.005 µM) of 0.923, a relative viability (NCI-H1666; first compound 0.01581 µM) of 0.954 and a relative viability (NCI-H1666; first compound 0.05 µM) of 0.82. For the same molecule, the relative viability (NCI-H1666; first compound 0.1581 µM) was 0.705, the relative viability (NCI-H1666; first compound 0.5 µM) was 0.829 and the relative viability (NCI-H1734; first compound 0.005 µM) was 0.834. For the same molecule, the relative viability (NCI-H1734; first compound 0.01581 µM) was 0.948, the relative viability (NCI-H1734; first compound 0.1581 µM) was 0.797 and the relative viability (NCI-H1734; first compound 0.5 µM) was 0.857. It also gave a relative viability (NCI-H1755; first compound 0.005 µM) of 0.969, a relative viability (NCI-H1755; first compound 0.01581 µM) of 0.993 and a relative viability (NCI-H1755; first compound 0.05 µM) of 0.954. It also gave a relative viability (NCI-H1755; first compound 0.1581 µM) of 0.968, a relative viability (NCI-H1755; first compound 0.5 µM) of 1.02 and a relative viability (NCI-H1792; first compound 0.005 µM) of 0.554. The relative viability (NCI-H1792; first compound 0.01581 µM) was 0.629, the relative viability (NCI-H1792; first compound 0.05 µM) was 0.414 and the relative viability (NCI-H1792; first compound 0.1581 µM) was 0.539. For the same molecule, the relative viability (NCI-H1792; first compound 0.5 µM) was 0.609, the relative viability (NCI-H1975; first compound 0.005 µM) was 1.01 and the relative viability (NCI-H1975; first compound 0.01581 µM) was 1.14. It also gave a relative viability (NCI-H1975; first compound 0.05 µM) of 1.07, a relative viability (NCI-H1975; first compound 0.1581 µM) of 0.869 and a relative viability (NCI-H1975; first compound 0.5 µM) of 1. The relative viability (NCI-H23; first compound 0.005 µM) was 0.628, the relative viability (NCI-H23; first compound 0.01581 µM) was 0.691 and the relative viability (NCI-H23; first compound 0.05 µM) was 0.559. For the same molecule, the relative viability (NCI-H23; first compound 0.1581 µM) was 0.509, the relative viability (NCI-H23; first compound 0.5 µM) was 0.642 and the relative viability (NCI-H441; first compound 0.005 µM) was 0.449. It also gave a relative viability (NCI-H441; first compound 0.01581 µM) of 0.587, a relative viability (NCI-H441; first compound 0.05 µM) of 0.412 and a relative viability (NCI-H441; first compound 0.1581 µM) of 0.44. It also gave a relative viability (NCI-H441; first compound 0.5 µM) of 0.706, a relative viability (NCI-H520; first compound 0.005 µM) of 0.891 and a relative viability (NCI-H520; first compound 0.01581 µM) of 1.15. It also gave a relative viability (NCI-H520; first compound 0.05 µM) of 1.12, a relative viability (NCI-H520; first compound 0.1581 µM) of 0.832 and a relative viability (NCI-H520; first compound 0.5 µM) of 0.771. For the same molecule, the relative viability (NCI-H596; first compound 0.005 µM) was 1.09, the relative viability (NCI-H596; first compound 0.01581 µM) was 1.09 and the relative viability (NCI-H596; first compound 0.05 µM) was 0.722. For the same molecule, the relative viability (NCI-H596; first compound 0.1581 µM) was 1, the relative viability (NCI-H596; first compound 0.5 µM) was 1.02 and the relative viability (PC-3 [JPC-3]; first compound 0.005 µM) was 0.964. The relative viability (PC-3 [JPC-3]; first compound 0.01581 µM) was 0.996, the relative viability (PC-3 [JPC-3]; first compound 0.05 µM) was 0.996 and the relative viability (PC-3 [JPC-3]; first compound 0.1581 µM) was 0.983. The relative viability (PC-3 [JPC-3]; first compound 0.5 µM) was 0.969, the relative viability (SK-MES-1; first compound 0.005 µM) was 1.03 and the relative viability (SK-MES-1; first compound 0.01581 µM) was 1.19. For the same molecule, the relative viability (SK-MES-1; first compound 0.05 µM) was 1.19, the relative viability (SK-MES-1; first compound 0.1581 µM) was 1.02 and the relative viability (SK-MES-1; first compound 0.5 µM) was 1.1.
